# Patent US7300546B2, “Cellulose fiber having improved biostability and the resulting products” (Weyerhaeuser Company, priority 2000, dated 2007)
# System: cellulose fungal decay
# Assay: Inground testing of cement-treated pulp sheets, subjective visual rating for deterioration (biodurability)
# Parameters: species or system fungi
# Conditions: for biological protection: summary statement in Example 2
# Protocol: Samples for testing were prepared by obtaining unbleached mixed conifer kraft pulp sheets produced in an interior British Columbia mill. […] Solutions of various biocides were made up so that the desired ultimate concentration of active material would be obtained by spraying each sample portion of pulp sheet with about 1 g of the biocidal solution per gram of pulp. […] Subsequently the treated sheets were reslurried in water having a pH ˜12 obtained from a cement board manufacturing facility and refined to a Canadian Standard Freeness (CSF) level of 450 mL. All refining was done in a pilot scale Model 202 Claflin refiner (available from Bolton-Emerson, Inc., Lawrence, Mass.). The treated and refined pulp was dewatered by centrifuging to a consistency of about 30% and then pin fluffed to ensure uniformity.
# Treatments included copper sulfate at concentrations of 0.1, 0.3, and 0.5% Cu w/w based on dry pulp; zinc sulfate at concentrations of 0.1%, 0.3%, and 0.6% Zn; 0.2% propiconazole emulsion; didecyldimethylammonium chloride (DDAC) 0.2%, 0.5%; and 1.0%, and 1.0% DDAB. Treated fibers were also made using 1.0% DDAC with 0.05%, 0.10%, and 0.2% Cu added as copper sulfate. All concentrations are on a weight/weight basis.
# Samples of 30 g of the treated pulps were reslurried in water and formed into sheets in an 8×8 inch (203×203 mm) sheet. The sheets were pressed to remove excess moisture then air dried. Each sheet was then cut in half and dipped for 30 seconds in a slurry of one part Portland cement in three parts by weight water. The coated and impregnated sheets were removed and drained, allowed to cure for two days wet, and then air dried. Each 4×8 inch ([…] mm) cement treated sheet was then enclosed in a 20 mesh stainless steel screen and half buried in the ground at a test site at Hilo, Hi. Samples were then removed after three month, six month, nine month, and twelve month periods for examination. Exposed sheets were assigned a subjective rating for deterioration based on visual observation (3=sound and 0=complete deterioration). The exposed sheets were also examined microscopically to determine the presence of fungal mycelium and cell wall deterioration. […] 1
smiles,measurement,setting,value
"CCCCCCCCCC[N+](C)(C)CCCCCCCCCC.[Br-] [DDAB, didecyldimethylammonium bromide]",below ground protection,DDAB at 1% (lower concentrations not tested),effective below ground protection
"CCCCCCCCCC[N+](C)(C)CCCCCCCCCC.[Cl-] [DDAC, didecyldimethylammonium chloride]",below ground protection,DDAC at 0.5% or greater,effective below ground protection
"O=S(=O)([O-])[O-].[Zn+2] [Zinc compounds, zinc sulfate]",decay protection,at any concentration tested,did not give effective decay protection
same,biological protection,,poor
"O=S(=O)([O-])[O-].[Cu+2] [copper, copper sulfate]",reducing cellulose fungal decay,after the one year underground tests,effective in reducing cellulose fungal decay
same,below ground protection,copper at concentrations of 0.3% or greater,effective below ground protection
CCCC1COC(Cn2cncn2)(c2ccc(Cl)cc2Cl)O1 (centres unmarked) [propiconazole],decay protection,at 0.2%,did not give effective decay protection
same,biological protection,,poor
